IC50 data for 50 compounds are collected here from EP4803513A1, “SUBSTITUTED QUINAZOLINE COMPOUND, PREPARATION METHOD THEREFOR, PHARMACEUTICAL COMBINATION THEREOF, AND USE THEREOF” (Hongyun Biotech Co., Ltd., priority 2023, dated 2025).

Test [1] concerns BRK-BaF3 cells. Briefly: Cell antiproliferative activity assay (CCK-8), BRK-BaF3. The format is cell-based. Particulars: 72 h, CCK-8, 3 days incubation. The protocol: (§1) The activity of compounds against BRK kinase can be evaluated by their inhibition of the growth of the BRK kinase-stably transfected BaF3 cell line (BRK-BaF3) and wild-type BaF3 cells (WT-BaF3). […] The larger the ratio of the half-maximal growth inhibitory concentration (IC50) of a compound between WT-BaF3 and BRK-BaF3 cells, the better the selectivity of the compound.
(§2) BRK-BaF3, WT-BaF3, WEHI cell line, and breast cancer cell line T47D were cultured using RPMI 1640 Basal medium or DMEM (Dulbecco's Modified Eagle Medium) (Shanghai Peiyuan Biotechnology, L220KJ), supplemented with 10% FBS (Gibco, REF 10099-141C) and 1% P/S (Shanghai Peiyuan Biotechnology, S110JV), in an incubator (Thermo 3020) at 37°C with 5% CO2. Cell viability was above 95%. Cells were passaged at a 3:1 ratio every 3-4 days. For WT-BaF3 cells, WEHI cells were first cultured, and their culture supernatant was filtered through a 0.22 µm filter. This supernatant was added at 10% to the regular culture medium to supplement IL-3 required for WT-BaF3 cell proliferation, which served as the culture medium for WT-BaF3. For testing, cells were first collected and counted, then prepared into a cell suspension at 100,000 cells/mL and plated at 100 µL per well. Drug concentrations started from 10 µM and were serially diluted 3:1. After incubation for 3 days, 20 µL of CCK-8 detection reagent (Targetmol C005) was added to each well. After incubation for 2-4 hours, OD450 was measured using a microplate reader (Varioskan LUX, Thermo Scientific). After subtracting the blank background, the curve was fitted and the IC50 was calculated using XLfit software.

Test [2] relates to WT-BaF3 cells. Briefly: Cell antiproliferative activity assay (CCK-8), WT-BaF3 (broad-spectrum cytotoxicity). It is filed as cell-based. Conditions: 72 h; WT-BaF3 cells (IL-3 supplemented), CCK-8, 3 days incubation. The protocol: as §1, §2

A word on the IC50: it is the point on the concentration scale where inhibition reaches its midpoint. A higher IC50 goes with a need for much substance. Regarding `Cc1nn(CCN)cc1Nc1ncc2cc(-c3nccnc3C)cc(C(C)C)c2n1` [III-108], the results for the IC50 in test [1] and in test [2] were at most 20 nM and 100 to 500 nM, respectively.
As to `Cc1nn(CCO)cc1Nc1ncc2cc(-c3nccnc3Cl)cc(C3CC3)c2n1` [I-104], the results for the concentration for half-maximal inhibition (IC50) in test [1] and in test [2] were at most 20 nM and over 2500 nM, respectively.
In the same order, the values of `COc1cc(Nc2ncc3cc(-c4nccnc4C)cc(C(C)C)c3n2)cnc1P(C)(C)=O` [II-7] are 20 to 100 nM and 500 to 2500 nM.
In the same order, the values of `COc1cc(Nc2ncc3cc(-c4c(C)ncnc4C)cc(C(C)C)c3n2)ccc1P(C)(C)=O` [II-54] are at most 20 nM and over 2500 nM.
Consider `Cc1nccnc1-c1cc(C(C)C)c2nc(Nc3ccc(P(C)(C)=O)cn3)ncc2c1` [II-8], for which the IC50 in test [1] is 20 to 100 nM; in test [2] it was over 2500 nM.
As to `Cc1cnc(C)c(-c2cc(C(C)C)c3nc(Nc4cn(CCO)nc4C)ncc3c2)n1` [I-96], the values for the IC50 in test [1] and in test [2] were 20 to 100 nM and over 2500 nM, respectively.
Turning to `Cc1nn(CCO)cc1Nc1ncc2cc(-c3nccnc3N)cc(C(C)C)c2n1` [I-84], the values for the 50% inhibitory concentration (IC50) in test [1] and in test [2] were at most 20 nM and over 2500 nM, respectively.
Take `Cc1cccnc1-c1cc(C(C)C)c2nc(Nc3cn(CCO)nc3C)ncc2c1` [I-3]: the 50% inhibitory concentration (IC50) in test [1] was at most 20 nM; in test [2] it was over 2500 nM.
In the same order, the values of `Cc1nccnc1-c1cc(C(C)C)c2nc(Nc3cnn(CCO)c3)ncc2c1` [I-97] are at most 20 nM and 500 to 2500 nM.
Take `Cc1nn(CCO)cc1Nc1ncc2cc(-c3c(C)ncnc3C)cc(C(F)(F)F)c2n1` [I-150]: the half-inhibitory concentration (IC50) in test [1] is at most 20 nM; in test [2] it was over 2500 nM.
In the same order, the values of `Cc1nn(CCO)cc1Nc1ncc2cc(-c3cncnc3)cc(C(F)(F)F)c2n1` [I-151] are 20 to 100 nM and over 2500 nM.
As to `Cc1cc(P(C)(C)=O)ncc1Nc1ncc2cc(-c3c(C)ncnc3C)cc(C(C)C)c2n1` [II-43], the results for the IC50 in test [1] and in test [2] were 20 to 100 nM and over 2500 nM, respectively.
For `Cc1cncc(-c2cc(C(C)C)c3nc(Nc4cn(CCO)nc4C)ncc3c2)n1` [I-90], the IC50 in test [1] is at most 20 nM; in test [2] it was 500 to 2500 nM.
As to `COc1nc(P(C)(C)=O)ccc1Nc1ncc2cc(-c3nccnc3C)cc(C(C)C)c2n1` [II-2], the values for the IC50 in test [1] and in test [2] were at most 20 nM and over 2500 nM, respectively.
Regarding `Cc1nn(C)cc1Nc1ncc2cc(-c3c(C)ncnc3C)cc(C(C)C)c2n1` [III-93], the IC50 in test [1] was at most 20 nM; in test [2], over 2500 nM.
For the compound `Cc1nn(CCCO)cc1Nc1ncc2cc(-c3c(C)ncnc3C)cc(C(C)C)c2n1` [I-142], the half-inhibitory concentration (IC50) in test [1] is at most 20 nM; in test [2], over 2500 nM.
On the same counts, the results for `Cc1nn(CCO)cc1Nc1ncc2cc(-c3cc(C#N)cnc3C)cc(C(C)C)c2n1` [I-42] are at most 20 nM and over 2500 nM.
For `CCN(C)CCn1cc(Nc2ncc3cc(-c4cc(=O)[nH]cc4C)cc(C(C)C)c3n2)c(C)n1` [III-51], the IC50 in test [1] is at most 20 nM.
In test [1], `Cc1ncc(F)cc1-c1cc(C(C)C)c2nc(Nc3cnn(CCO)c3C)ncc2c1` [I-69] registered an IC50 of 20 to 100 nM.
Regarding `COCCOCCn1cc(Nc2ncc3cc(-c4cc(=O)[nH]cc4C)cc(C(C)C)c3n2)c(C)n1` [III-44], the IC50 in test [1] is 20 to 100 nM.
In test [1], `Cc1nn(C)cc1Nc1ncc2cc(-c3cccnc3C(F)F)cc(C(C)C)c2n1` [III-123] registered an IC50 of at most 20 nM.
On to `CCc1cc(-c2cc(=O)[nH]cc2C)cc2cnc(Nc3cn(C)nc3C)nc12` [III-84], for which, in test [1], the IC50 lay within 20 to 100 nM.
`Cc1c(Nc2ncc3cc(-c4c(F)ccnc4F)cc(C(C)C)c3n2)cnn1CCO` [I-70] showed an IC50 in test [1] of at most 20 nM.
Compound `Cc1c[nH]c(=O)cc1-c1cc(C(C)C)c2nc(Nc3cn(C4CCN(C(C)C)C4)nc3C)ncc2c1` (stereo not shown) [III-39] came in with an IC50 in test [1] of at most 20 nM.
For the compound `Cc1c[nH]c(=O)cc1-c1cc(C(C)C)c2nc(Nc3cn(CC(=O)NCCF)nc3C)ncc2c1` [III-70], the IC50 in test [1] is 20 to 100 nM.
As to `Cc1c[nH]c(=O)cc1-c1cc(C(C)C)c2nc(Nc3c[nH]nc3C)ncc2c1` [III-11], the IC50 in test [1] was at most 20 nM.
On to `Cc1nn(CCO)cc1Nc1ncc2cc(-c3cccnn3)cc(C(C)C)c2n1` [I-115], for which, in test [1], the IC50 lay in the range of 20 to 100 nM.
Turning to `COC[C@@H](C)n1ncc(Nc2ncc3cc(-c4cc(=O)[nH]cc4C)cc(C(C)C)c3n2)c1C` [III-46], the IC50 in test [1] is at most 20 nM.
`Cc1c[nH]c(=O)cc1-c1cc(C(C)C)c2nc(Nc3cn(CC(=O)NCC(F)F)nc3C)ncc2c1` [III-71] showed an IC50 in test [1] of 20 to 100 nM.
On the same count and under the same terms, the same measure for `COCCn1cc(Nc2ncc3cc(-c4cc(=O)[nH]cc4C)cc(C(C)C)c3n2)c(C)n1` [III-42]: at most 20 nM.
`Cc1nn(CCO)cc1Nc1ncc2cc(-c3c[nH]c4ncccc34)cc(C(C)C)c2n1` [I-186] came in with an IC50 in test [1] of 20 to 100 nM.
`CC(=O)c1cc(-c2cc(C(C)C)c3nc(Nc4cn(CCO)nc4C)ncc3c2)ccn1` [I-18] gave an IC50 in test [1] of at most 20 nM.
On the same count and under the same terms, the figure for `[2H]C([2H])([2H])n1ncc(Nc2ncc3cc(-c4cc(=O)[nH]cc4C)cc(C(C)C)c3n2)c1C` [III-10] is at most 20 nM; for `Cc1nn(CCO)cc1Nc1ncc2cc(-c3nccnc3Cl)cc(C(C)C)c2n1` [I-80] it is at most 20 nM; for `Cc1nccnc1-c1cc(C(C)C)c2nc(Nc3cnn(C)c3C)ncc2c1` [III-100] it is at most 20 nM.
Turning to `Cc1c[nH]c(=O)cc1-c1cc(C(C)C)c2nc(Nc3cnn([C@@H](C)C(=O)N(C)C)c3C)ncc2c1` [III-49], in test [1], the IC50 was 20 to 100 nM.
Compound `Cc1nn(C)cc1Nc1ncc2cc(-c3cc[nH]c(=O)c3)cc(C(C)C)c2n1` [III-1] came in with an IC50 in test [1] of 20 to 100 nM.
Compound `Cc1c[nH]c(=O)cc1-c1cc(C(C)C)c2nc(Nc3cnn([C@@H]4C[C@H]5CC[C@@H](C4)N5C)c3C)ncc2c1` [III-26] displayed an IC50 in test [1] of at most 20 nM.
The same measure, in the same setting: the figure for `C#CCN(C)C(=O)Cn1cc(Nc2ncc3cc(-c4cc(=O)[nH]cc4C)cc(C(C)C)c3n2)c(C)n1` [III-76] is 20 to 100 nM.
On to `Cc1c(Nc2ncc3cc(-c4cnccc4C#N)cc(C(C)C)c3n2)cnn1CCO` [I-63], for which the IC50 in test [1] was in the range of 20 to 100 nM.
The compound `Cc1nn(CCO)cc1Nc1ncc2cc(-c3cncc(Cl)c3Cl)cc(C(C)C)c2n1` [I-38] showed an IC50 in test [1] of at most 20 nM.
Consider `Cc1c[nH]c(=O)cc1-c1cc(C(C)C)c2nc(Nc3cn(C4CCCN(C)CC4)nc3C)ncc2c1` (stereo not shown) [III-35], for which, in test [1], the IC50 is at most 20 nM.
`Cc1c[nH]c(=O)cc1-c1cc(C(C)C)c2nc(Nc3cnn(C4CCN(C(C)C)CC4)c3C)ncc2c1` [III-17] gave an IC50 in test [1] of at most 20 nM.
`Cc1c[nH]c(=O)cc1-c1cc(C(C)C)c2nc(Nc3cn(-c4cncnc4)nc3C)ncc2c1` [III-34]: in test [1], the IC50 lay in the range of 20 to 100 nM.
Same read-out and setting: the same measure for `Cc1c[nH]c(=O)cc1-c1cc(C(C)C)c2nc(Nc3cn(C4COC4)nc3C)ncc2c1` [III-40]: at most 20 nM; for `Cc1c[nH]c(=O)cc1-c1cc(C2CC2)c2nc(Nc3cn(C4COC4)nc3C)ncc2c1` [III-82]: at most 20 nM; for `Cc1c[nH]c(=O)cc1-c1cc(C(C)C)c2nc(Nc3cn(CCN4CCOC[C@@H]4C)nc3C)ncc2c1` [III-59]: at most 20 nM.
In turn, `CCc1c(Nc2ncc3cc(-c4cc(=O)[nH]cc4C)cc(C(C)C)c3n2)cnn1C1CCN(C)CC1` [III-30] displayed an IC50 in test [1] of at most 20 nM.
Compound `Cc1c[nH]c(=O)cc1-c1cc(C(C)C)c2nc(Nc3cn(C4CCN(C)C4)nc3C)ncc2c1` (stereo not shown) [III-38] had an IC50 in test [1] of at most 20 nM.
In the case of `Cc1c[nH]c(=O)cc1-c1cc(C(C)C)c2nc(Nc3cn([C@@H](C)C(=O)N(C)C)nc3C)ncc2c1` [III-48], the IC50 in test [1] is at most 20 nM.
